Measured values taken from US20190030114A1, “ISOFORM-SPECIFIC CALPAIN INHIBITORS, METHODS OF IDENTIFICATION, AND USES THEREOF” (WESTERN UNIVERSITY OF HEALTH SCIENCES, priority 2014, published 2019).
Read-outs that look alike come from different tables or passages of the source.

Molecular target: T1, calpain-2 (Homo sapiens, UniProt P17655)
T1 sequence (P17655 1-700): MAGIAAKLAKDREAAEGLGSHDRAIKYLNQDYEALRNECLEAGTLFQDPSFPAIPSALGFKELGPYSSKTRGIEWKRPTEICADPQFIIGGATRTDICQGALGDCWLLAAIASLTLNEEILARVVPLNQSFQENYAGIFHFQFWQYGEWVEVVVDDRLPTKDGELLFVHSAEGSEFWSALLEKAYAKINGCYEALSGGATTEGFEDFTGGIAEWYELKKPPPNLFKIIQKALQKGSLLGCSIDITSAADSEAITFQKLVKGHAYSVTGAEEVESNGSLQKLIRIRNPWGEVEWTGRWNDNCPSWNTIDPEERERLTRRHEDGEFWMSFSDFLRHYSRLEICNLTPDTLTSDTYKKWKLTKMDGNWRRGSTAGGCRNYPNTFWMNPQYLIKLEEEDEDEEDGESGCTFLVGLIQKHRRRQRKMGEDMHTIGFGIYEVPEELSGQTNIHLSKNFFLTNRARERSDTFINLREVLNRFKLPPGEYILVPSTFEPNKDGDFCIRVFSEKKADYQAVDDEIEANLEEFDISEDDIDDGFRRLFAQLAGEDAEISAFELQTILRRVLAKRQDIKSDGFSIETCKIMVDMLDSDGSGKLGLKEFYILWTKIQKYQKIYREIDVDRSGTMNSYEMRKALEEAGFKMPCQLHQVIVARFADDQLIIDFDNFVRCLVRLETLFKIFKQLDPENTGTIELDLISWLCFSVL
T1 sequence (P04632 1-268 partner): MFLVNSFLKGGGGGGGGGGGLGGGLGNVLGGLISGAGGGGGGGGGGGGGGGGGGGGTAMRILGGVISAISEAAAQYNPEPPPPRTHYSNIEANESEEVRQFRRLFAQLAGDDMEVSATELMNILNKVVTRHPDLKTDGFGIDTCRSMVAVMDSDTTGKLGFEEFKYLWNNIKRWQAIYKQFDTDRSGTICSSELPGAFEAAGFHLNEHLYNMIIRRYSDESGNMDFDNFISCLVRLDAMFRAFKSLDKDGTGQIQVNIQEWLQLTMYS
Assay: in vitro calpain-2 inhibition, succinic-Leu-Tyr-AMC substrate
Assay type: biochemical
Protocol: Formula 1, where chiral center 1 is the L-form and chiral center 2 is a racemic mixture of D- and L- in this example was introduced at various concentrations (from 1 nM to 10 μM) into an in vitro mix comprising succinic-Leu-Tyr-AMC and calpain-1 or calpain-2 (Sasaki et al, 1984), and the kinetics of the loss of fluorescence were determined for each of the calpains (Powers et al, 2000). […] Therefore, the assessment of selectivity described herein was different than the prior teaching.
Formula 1A, where chiral center 1 is the S-form and chiral center 2 is the S-form was separated from the S-R-form (Formula 1B) using methods that are well-known methods for separating diastereoisomers. Formula 1A, which is also referred to herein as compound 18A, in this example was introduced at various concentrations into an in vitro mix comprising succinic-Leu-Tyr-AMC and μ-calpain or m-calpain (Sasaki et al, 1984), and the kinetics of the loss of fluorescence were determined for each of the calpains.

Question: Which results are given for `CCC(NC(=O)C(CC(C)C)NC(=O)OCc1ccccc1)C(=O)C(=O)NCc1cc(OC)cc(OC)c1` (racemic) [Formula 1, Z-Leu-Abu-CONH—CH2-C6H3 (3, 5-(OMe)2)]?
Answer: Ratio KiCalpain-1/KiCalpain-2: 31.1; Ki (Example 1, chiral center 2 racemic, read-out: Ki for calpain-2, determined herein): 25 nM; Ki (Example 13, n = 3-4, read-out: Ki Calpain-2): 21.3 nM; IC50 (n = 3-4): 210 nM
